Reference: patent publication US4327097A, “Novel penicillins” (Toyama Chemical Co., Ltd., priority 1974, dated 1982)
≈ marks a conversion by molar mass, not a printed value.

What was measured:
[1] = tested on: mouse; experiment: Toxicity, LD50 i.v. in mouse; type: in vivo; details: i.v. in mouse having a weight of 19±1 g
Excerpt: The present penicillins and cephalosporins have generally low toxicity.

[2] = tested on: Salmonella typhi-murium; experiment: MIC against clinical isolates; type: cell-based; details: Table 5-5, clinical isolate; unit assumed
[3] = tested on: Escherichia coli; experiment: MIC against clinical isolates; type: cell-based; details: Table 5-2, clinical isolate; unit assumed
[4] = tested on: Proteus vulgaris; experiment: MIC against clinical isolates; type: cell-based; details: Table 5-6, clinical isolate; unit assumed
[5] = tested on: Staphylococcus aureus; experiment: MIC against clinical isolates; type: cell-based; details: Table 5-1, clinical isolate; unit assumed
[6] = tested on: Pseudomonas aeruginosa; experiment: MIC against clinical isolates; type: cell-based; details: Table 5-3, clinical isolate, unit assumed
[7] = tested on: Proteus mirabilis; experiment: MIC against clinical isolates; type: cell-based; details: Table 5-6, clinical isolate; unit assumed
[8] = tested on: Proteus rettgeri; experiment: MIC against clinical isolates; type: cell-based; details: Table 5-6, clinical isolate; unit assumed
[9] = tested on: Shigella flexneri; experiment: MIC against clinical isolates; type: cell-based; details: Table 5-5, clinical isolate; unit assumed
Method: (§1) The minimum inhibitory concentration (MIC) was determined by the plate method disclosed in "Chemotherapy" (Japan), Vol. 16, (1968), pages 98-99. The culture medium used was a Heart infusion agar (pH 7.4). The number of the cells per plate used in the inoculum was 10^4 (10^6 cells/ml).
(§2) MIC was determined in the same manner as in the preceding paragraph (1).

[10] = tested on: Shigella sonnei; experiment: MIC against clinical isolates; type: cell-based; details: Table 5-5, clinical isolate; unit assumed
Method: as §1, §2

[11] = tested on: Escherichia coli NIHJ; experiment: MIC, plate method, standard strains; type: cell-based; details: Table 3, standard strain; unit assumed
In short: (§3)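 Test compound was incorporated into Heart infusion agar at pH 7.4, plates were inoculated with 10^4 cells each (suspension at 10^6 cells/ml), and the minimum inhibitory concentration was recorded.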

[12] = tested on: Staphylococcus aureus 209p; experiment: MIC, plate method, standard strains; type: cell-based; details: Table 3, standard strain, Heart infusion agar pH 7.4; unit assumed
In short: as §3

[13] = tested on: Pseudomonas aeruginosa I.F.O.; experiment: MIC, plate method, standard strains; type: cell-based; details: Table 3, standard strain; unit assumed
In short: as §3

[14] = tested on: Proteus vulgaris 3027; experiment: MIC, plate method, standard strains; type: cell-based; details: Table 3, standard strain; unit assumed
In short: as §3

[15] = tested on: Klebsiella pneumoniae; experiment: MIC, plate method, standard strains; type: cell-based; details: Table 3, standard strain; unit assumed
In short: as §3

[16] = tested on: Klebsiella pneumoniae; experiment: MIC against clinical isolates; type: cell-based; details: Table 5-4, clinical isolate; unit assumed
[17] = tested on: β-lactamase, Pseudomonas aeruginosa GN 238; experiment: Resistant activity against β-lactamase, iodometric assay; type: biochemical; details: β-lactamase from Pseudomonas aeruginosa GN 238; Potassium Penicillin G = 100
In short: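 Crude β-lactamase was the sonicated-cell supernatant from P. aeruginosa GN 238, grown 6 h at 37 °C and washed in 0.1 M phosphate pH 7.0. Compound stability to the enzyme measured iodometrically; values are relative activity with potassium penicillin G set at 100.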

`CCN1CCN(C(=O)N[C@@H](C(=O)N[C@@H]2C(=O)N3[C@@H]2SC(C)(C)[C@@H]3C(=O)O)c2ccccc2)C(=O)C1=O` was tested, and the LD50 [1] was “greater than 5 g/kg”.

In the case of `CC(C)N1CCN(C(=O)NC(C(=O)NC2C(=O)N3C2SC(C)(C)C3C(=O)O)c2ccccc2)C(=O)C1=O` (single isomer, unassigned) [Compound 40], the MIC Salmonella typhi-murium SL 2136 [2] is reported as > 200 µg/mL, the MIC Escherichia coli GN 3452 [3] is reported as 1.57 µg/mL (≈ 2.95 µM) and the MIC Escherichia coli GN 3465 [3] is reported as 50 µg/mL (≈ 94.1 µM). The MIC Escherichia coli GN 3481 [3] was 1.57 µg/mL (≈ 2.95 µM), the MIC Escherichia coli GN 3611 [3] was > 200 µg/mL and the MIC Escherichia coli K-1 [3] was 1.57 µg/mL (≈ 2.95 µM). The MIC Escherichia coli K-2 [3] was 3.13 µg/mL (≈ 5.89 µM), the MIC Escherichia coli K-3 [3] was > 200 µg/mL and the MIC Proteus vulgaris [4] was < 0.4 µg/mL. It also gave an MIC Staphylococcus aureus F-1 [5] of 6.25 µg/mL (≈ 11.8 µM), an MIC Staphylococcus aureus F-2 [5] of 3.13 µg/mL (≈ 5.89 µM) and an MIC Staphylococcus aureus F-4 [5] of 6.25 µg/mL (≈ 11.8 µM). For the same compound, the MIC Staphylococcus aureus F-5 [5] was > 200 µg/mL, the MIC Staphylococcus aureus MS 8588 [5] was 3.13 µg/mL (≈ 5.89 µM) and the MIC Staphylococcus aureus MS 8596 [5] was 3.13 µg/mL (≈ 5.89 µM). For the same compound, the MIC Staphylococcus aureus MS 8684 [5] was 3.13 µg/mL (≈ 5.89 µM), the MIC Pseudomonas aeruginosa GN ([6]; strain number not given) was 6.25 µg/mL (≈ 11.8 µM) and the MIC Pseudomonas aeruginosa GN 82 [6] was 6.25 µg/mL (≈ 11.8 µM). For the same compound, the MIC Pseudomonas aeruginosa GN 163 [6] was 6.25 µg/mL (≈ 11.8 µM), the MIC Pseudomonas aeruginosa GN 221 [6] was 6.25 µg/mL (≈ 11.8 µM) and the MIC Pseudomonas aeruginosa GN 376 [6] was 3.13 µg/mL (≈ 5.89 µM). It also gave an MIC Pseudomonas aeruginosa GN 383 [6] of 6.25 µg/mL (≈ 11.8 µM), an MIC Pseudomonas aeruginosa GN 1091 [6] of 6.25 µg/mL (≈ 11.8 µM) and an MIC Pseudomonas aeruginosa GN 2987 [6] of 3.13 µg/mL (≈ 5.89 µM). The MIC Proteus mirabilis [7] was < 0.4 µg/mL, the MIC Proteus rettgeri [8] was 6.25 µg/mL (≈ 11.8 µM) and the MIC Shigella flexneri JS 11215 [9] was 50 µg/mL (≈ 94.1 µM). For the same compound, the MIC Shigella flexneri JS 11839 [9] was 3.13 µg/mL (≈ 5.89 µM), the MIC Shigella sonnei JS 11232 [10] was 50 µg/mL (≈ 94.1 µM) and the MIC Shigella sonnei JS 11755 [10] was 3.13 µg/mL (≈ 5.89 µM). For the same compound, the MIC Esche--richin coil NIHJ [11] was < 0.1 µg/mL, the MIC Staphylococcus aureus 209p [12] was 0.4 µg/mL (≈ 0.752 µM) and the MIC Pseudomonas aeruginosa I.F.C [13] was 6.25 µg/mL (≈ 11.8 µM). The MIC Proteus vulgaris 3027 [14] was 0.4 µg/mL (≈ 0.752 µM), the MIC Klebsiella pneumoniae [15] was 3.13 µg/mL (≈ 5.89 µM) and the MIC Klebsiella pneumoniae GN 917 [16] was 6.25 µg/mL (≈ 11.8 µM). For the same compound, the MIC Klebsiella pneumoniae GN 4081 [16] was 100 µg/mL (≈ 188 µM), the MIC Klebsiella pneumoniae GN 4117 [16] was 50 µg/mL (≈ 94.1 µM) and the “Relative activity (%), resistant activity against β-lactamase” value [17] was 15%.
